Source: patent US6300311A, “Regulation of vertebrate ovarian maturation and function using growth factors” (Texas Tech University, priority 1998, dated 2001)
Several values for one entry are separate records, joined by “and”; a condition that tells them apart may be missing. Equal values may be shown once. Entries after “also recorded” stand apart in the source; their conditions may differ.

Tests used:
FSH receptors = experiment: Expression of FSH receptors in granulosa cells from antral pig follicles; assay type: cell-based; conditions: EGF 50 ng/ml
mature rats = conditions: intravenously infused for a four-week period; cited from earlier work
mini-pigs = conditions: minipig, in vivo; cited from earlier work
pig ZP proteins = experiment: Pig ovarian explant culture with EGF, ZP proteins by protein dot blot; assay type: cell-based; conditions: EGF 50 ng/ml, 6 days
Experimental: For this first experiment ovaries were collected form pigs at three to five weeks of age at which the pig ovaries are very immature. The ovaries were then minced into small pieces and grown in ovarian explant cultures with or without EGF (similar to what we have done with the rabbit ovaries). After 6 days of culture the tissue was collected and in this case proteins from these samples were isolated and solubilized. The amount of total zona pellucida protein in these samples was determined using an antibody we developed in guinea pigs against total zona pellucida proteins. The amount of porcine zona pellucida proteins in these samples were determined by dot blot analysis and quantified by optical density. The relative amount of zona pellucida protein is graphed for each sample (control and EGF treated 50 ng/ml). This was done for 3 replicates.

[1] = tested on: granulosa cells from primary pig follicles; experiment: DNA synthesis in granulosa cells from primary pig follicles; assay type: cell-based; conditions: EGF 50 ng/ml
[2] = tested on: pig ZP proteins in isolated primordial follicles; experiment: Isolated pig primordial follicles cultured with EGF, ZP proteins by protein dot blot; assay type: cell-based; conditions: EGF 50 ng/ml, 6 days
Experimental: FIG. 16 graphically presents the results of studying the effect of EGP on ZP expression in isolated primordial follicles. As in the previous experiment, ovaries were collected from immature pigs at 3 to 5 weeks of age. In this case the ovaries were minced and the follicles enzymatically separated from the connective tissues and isolated. The population of small primordial follicles were collected and grown in cell culture well inserts. These were cultured for six days in medium alone as control or in medium supplemented with 50 nanograms per ml of EGF. After 6 days of culture the follicles were collected and proteins isolated and solubilized. The amount of total zona pellucida protein in these samples was determined using an antibody developed in guinea pigs against total zona pellucida proteins. The amount of porcine zona pellucida proteins in these samples were determined by dot blot analysis and quantified by optical density. The relative amount of zona pellucida protein is graphed in FIG. 16 for each sample (control and EGF treated 50 ng/ml). This was done for 3 replicates. […] This is consistent with the hypothesis that EGF can stimulate activation of dormant primordial follicles as indicated by the expression of zona pellucida genes.

young female pigs [3] = experiment: In vivo rec-pEGF by subcutaneous osmotic pumps, Group 2 pigs, body and organ weights at necropsy
R55 mRNA = experiment: Rabbit ovary explant culture treated with EGF, R55 mRNA by Northern blot; assay type: cell-based; conditions: EGF 50 ng/ml
Source text: A method to culture pieces of ovaries from 14 d.pp. rabbits was developed, modeled after techniques used for ovaries from neonatal mice and bovine embryos. Tissue pieces (1-2 mm^3) from 14 d.pp. rabbit ovaries containing only primordial follicles were placed in cell culture inserts with 3.0 mm pores and cultured in 24-well plates with 300 microliters medium (50-50 blend of (a) F-12 Nutrient Mixture (Ham)(1×), liquid contains L-glutamine, and (b) Medium 199 (1×), liquid contains Earle's modified salts, 1.250 mg/L sodium bicarbonate, and L-glutamine.
Cultures were treated with mouse EGF (50 ng/ml) and analyzed for the level of expression of R55 mRNA. Treatment with EGF produced a 3-fold increase in amount of R55 mRNA (normalized to 28 S) as compared to controls incubated in medium alone (FIG. 3).
Ovaries were collected from 2 week old rabbits and the tissue mince into small pieces (-1 mm^3). These ovarian explants were then cultured for 6 days in the presence or absence of EGF (50 ng/ml). Total RNA was isolated and the relative amount of R55mRNA measured by Northern blot analysis. The result of 3 experiments were averaged and graphed. The level of P55 expression in the controls was defined as one. The level of expression of the epidermal growth factor treated samples was approximately 3 fold of that seen in the controls. […] This effect is due to an increase in the number of follicles being activated.

neonatal mouse ovaries = neonatal mouse ovaries cultured in vitro; cited from earlier work
[4] = tested on: antiserum to recombinant porcine EGF; conditions: radioimmunoassay with antiserum to recombinant porcine EGF; cited from earlier work
[5] = tested on: Swiss 3T3 fibroblast cells; experiment: 3T3 fibroblast proliferation assay ([H3]-thymidine incorporation); assay type: cell-based; conditions: quiescent Swiss 3T3 cells
Experimental: In FIG. 21, the bioactivity of EGF was tested in a 3T3 fibroblast proliferation assay. EGF was added to quiescent Swiss 3T3 fibroblast cells and stimulation of fibroblast proliferation was measured by [H^3 ]-thymidine incorporation as an indicator of DNA synthesis.

young female pigs [6] = experiment: In vivo rec-pEGF by subcutaneous osmotic pumps, Group 1 pigs, histological evaluation of ovarian follicles; design: species or system pig
Experimental: Finally, FIG. 23 is a graph which confirms that in vivo administration of rec-pEGF to the Group 1 pigs, above, starting at 30 d.pp. and administered for fourteen consecutive days at a 540 μg/day dose by placement of subcutaneous osmotic pumps in each pig. Ovaries from a sub-set of Group 1 pigs were examined at 70 d.pp. when the first cohort of growing follicles is normally expected to be present. […] Data was obtained by counting the number of hematoxylin/eosin stained follicles in a counting frame (960×1400 μm), and only sections through the center of a follicle with the germinal vesicle present were used for the evaluation. Growing follicles were identified based upon the presence of at least one cuboidal layer of granulosa cells surrounding the oocyte.

young female pigs [7] = conditions: pig, in vivo
[8] = average of ten largest follicles, 540 μg/day for fourteen days

For “EGF: 53-residue polypeptide that is mitogenic for a variety of cell types both in vivo and in vitro”, which “expression of FSH receptors in granulosa cells from antral pig follicles” value (FSH receptors) is on record?
Its value is “stimulates”.

What about the “number of corpora lutea (CL)” value (mature rats) of the same substance?
The value was “increase in the number of corpora lutea”.

What about the ovarian weights (mature rats) of the same substance?
Its ovarian weights is “ovarian weights were increased”.

And the “organ growth in mini-pigs” value (mini-pigs)?
The value was “stimulate growth of heart, liver, and urinary tract”.

And the “Optical density of ZP proteins from ovarian explant cultures” value (pig ZP proteins; ovaries of pigs 3 to 5 weeks of age, single replicates)?
The value was 6355 and 6086 and 7193.

What about the “increase in the amount of zona pellucida protein in EGF treated ovarian explants” value (pig ZP proteins; versus control) of the same substance?
The value was “approximately a two fold increase”.

What about the “Optical density of ZP proteins from ovarian explant cultures, Avg. ZP” value (pig ZP proteins; average of 3 replicates) of the same substance?
Its value is 6545.

And the “DNA synthesis in granulosa cells from primary pig follicles” value [1]?
Its value is “stimulates”.

And the “Optical density of ZP proteins from cultured primordial follicles” value ([2]; follicles of pigs 3 to 5 weeks of age, single replicates)?
The value was 1815 and 371 and 1697.

What about the “expression of zona pellucida proteins in primordial follicles (in words)” value ([2]; versus medium alone) of the same substance?
The value was “significant increase”.

And the “Optical density of ZP proteins from cultured primordial follicles, Avg. ZP” value ([2]; average of 3 replicates)?
Its value is 1294.

What about the “Avg. Daily Gain” value (young female pigs [3]; Group 2, N = 3) of the same substance?
Its value is 0.32 ± 0.06 kg/day.

What about the “Day 14 Weight” value (young female pigs [3]; Group 2, N = 3) of the same substance?
The value was 4.6 ± 0.24 kg.

What about the “Day 70 Weight” value (young female pigs [3]; Group 2, N = 3) of the same substance?
Its value is 22.7 ± 3.40 kg.

What about the “ratio of R55 to 28S optical densities from Northern blots” value (R55 mRNA; 6 days, ovarian explants of 2 week old rabbits, control = 1, single experiments) of the same substance?
Its value is 2.87 and 3.09 and 3.28.

What about the “ratio of R55 to 28S optical densities from Northern blots, average” value (R55 mRNA; 6 days, average of 3 experiments, control = 1) of the same substance?
Its value is 3.08.

And the “expression of R55 in primordial rabbit ovarian follicles (in words)” value (R55 mRNA; Northern blot)?
Its value is “increased expression of R55; also recorded: significant increases in expression of R55”.

And the “number of eggs recovered for in vitro maturation and fertilization” value (neonatal mouse ovaries)?
Its value is “increased the number of eggs recovered”.

What does the source list for “mouse EGF: EGF originally purified from the male mouse submaxillary gland; used in the rabbit ovary cultures (NSYPGCPSSYDGYCLNGGVCMHIESLDSYTCNCVIGYSGDRCQTRDLRWWELR; Epidermal growth factor; UniProt P01132 977-1029, looked up)”?
cross-reactivity [4]: < 1%; increase in amount of R55 mRNA as compared to controls (R55 mRNA; normalized to 28S, controls in medium alone): 3 fold

Which “Stimulation of fibroblast proliferation” value [5] does the source give for “rec-pEGF: recombinant porcine EGF expressed in a bacterial system, with 6X histidine tag and 19 vector amino acids” here?
The value was “comparable to that of purified mouse EGF”.

And the “greater population of growing follicles than in control or non-treated groups” value (young female pigs [6]; 540 μg/day for fourteen days from 30 d.pp., necropsy fourteen days post-treatment)?
The value was 70%.

And the “size of ovarian follicles (in words)” value (young female pigs [6]; 540 μg/day for fourteen days from 30 d.pp., versus control or non-treated groups)?
Its value is “larger ovarian follicles”.

And the “number of ovarian follicles at 70 d.pp. (in words)” value (young female pigs [6]; 540 μg/day for fourteen days from 30 d.pp., versus control group and group administered nothing)?
The value was “significantly increased”.

What about the “follicle diameter greater than that of the control group” value (young female pigs [6]; [8]) of the same substance?
Its value is “over 100%”.

And the “follicle diameter greater than that of the group given nothing” value (young female pigs [6]; [8])?
Its value is “over 70%”.

And the “effect on organ weights, body weights and general pathology” value (young female pigs [7])?
Its value is “lack of effect”.

And the “increase in size of the ovaries” value (young female pigs [3]; 600 μg/day for fourteen days from 21 d.pp., tissues collected at 10 weeks, versus control and untreated group)?
Its value is ~100%.
